Columns and labels:
Assay type in all cases: in vivo
[1] = tested on: AMARE: Amaranthus retroflexus; experiment: Post-emergence herbicidal effect; conditions: dosage 320 g/ha
How it was run: (§1)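 Visual rating, made about 3 weeks after treatment against untreated plants, runs from 0% (like controls) to 100% (plants dead). WP or EC formulations were applied post-emergence as aqueous spray at 600 l/ha with 0.5% additive. Plants were at the one-leaf stage, 2 to 3 weeks after sowing in sandy loam.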

[2] = tested on: ABUTH: Abutilon theophrasti; experiment: Post-emergence herbicidal effect; conditions: dosage 320 g/ha
How it was run: as §1

[3] = tested on: VIOTR: Viola tricolor; experiment: Post-emergence herbicidal effect; conditions: dosage 320 g/ha
How it was run: as §1

[4] = tested on: ECHCG: Echinochloa crus-galli; experiment: Post-emergence herbicidal effect; conditions: dosage 320 g/ha
How it was run: as §1

[5] = tested on: SETVI: Setaria viridis; experiment: Post-emergence herbicidal effect; conditions: dosage 320 g/ha
How it was run: as §1

[6] = tested on: VERPE: Veronica persica; experiment: Post-emergence herbicidal effect; conditions: dosage 320 g/ha
How it was run: as §1

[7] = tested on: STEME: Stellaria media; experiment: Post-emergence herbicidal effect; conditions: dosage 320 g/ha
How it was run: as §1

[8] = tested on: ALOMY: Alopecurus myosuroides; experiment: Pre-emergence herbicidal effect; conditions: for Herbicidal action against ALOMY: dosage 320 g/ha
How it was run: (§2)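 Seeds sown in pots and covered with soil; compounds formulated as WP or EC were sprayed onto the soil surface as aqueous suspension/emulsion with 0.5% additive at 600 l/ha water. Greenhouse growth for about 3 weeks, then visual scoring in % versus untreated controls (100% = plants died, 0% = like control).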

[9] = tested on: AMARE: Amaranthus retroflexus; experiment: Pre-emergence herbicidal effect; conditions: for Herbicidal action against AMARE: pre-emergence, dosage 320 g/ha
How it was run: as §2

[10] = tested on: ABUTH: Abutilon theophrasti; experiment: Pre-emergence herbicidal effect; conditions: for Herbicidal action against ABUTH: dosage 320 g/ha
How it was run: as §2

[11] = tested on: POLCO: Polygonum convolvulus; experiment: Pre-emergence herbicidal effect; conditions: for Herbicidal action against POLCO: dosage 320 g/ha
How it was run: as §2

[12] = tested on: AVEFA: Avena fatua; experiment: Pre-emergence herbicidal effect; conditions: dosage 320 g/ha
How it was run: as §2

[13] = tested on: VIOTR: Viola tricolor; experiment: Pre-emergence herbicidal effect; conditions: dosage 320 g/ha
How it was run: as §2

[14] = tested on: ECHCG: Echinochloa crus-galli; experiment: Pre-emergence herbicidal effect; conditions: for Herbicidal action against ECHCG: dosage 320 g/ha
How it was run: as §2

[15] = tested on: LOLRI: Lolium rigidum; experiment: Pre-emergence herbicidal effect; conditions: for Herbicidal action against LOLRI: dosage 320 g/ha
How it was run: as §2

[16] = tested on: HORMU: Hordeum murinum; experiment: Pre-emergence herbicidal effect; conditions: for Herbicidal action against HORMU: pre-emergence, dosage 320 g/ha
How it was run: as §2

[17] = tested on: SETVI: Setaria viridis; experiment: Pre-emergence herbicidal effect; conditions: for Herbicidal action against SETVI: dosage 320 g/ha
How it was run: as §2

[18] = tested on: VERPE: Veronica persica; experiment: Pre-emergence herbicidal effect; conditions: dosage 320 g/ha
How it was run: as §2

[19] = tested on: MATIN: Matricaria inodora; experiment: Pre-emergence herbicidal effect; conditions: for Herbicidal action against MATIN: pre-emergence, dosage 320 g/ha
How it was run: as §2

[20] = tested on: PHBPU: Ipomoea purpurea; experiment: Pre-emergence herbicidal effect; conditions: for Herbicidal action against PHBPU: dosage 320 g/ha
How it was run: as §2

[21] = tested on: STEME: Stellaria media; experiment: Pre-emergence herbicidal effect; conditions: for Herbicidal action against STEME: pre-emergence, dosage 320 g/ha
How it was run: as §2

[22] = Table 4a, pre-emergence, dosage 20 g of a.i./ha
[23] = Table 4b, pre-emergence as titled, dosage 80 g of a.i./ha
[24] = Table 4a, dosage 20 g of a.i./ha

| Compound | Herbicidal action against AMARE [1] [%] | Herbicidal action against ABUTH [2] [%] | Herbicidal action against VIOTR [3] [%] | Herbicidal action against ECHCG [4] [%] | Herbicidal action against SETVI [5] [%] | Herbicidal action against VERPE [6] [%] | Herbicidal action against STEME [7] [%] | Herbicidal action against ALOMY ([8]; pre-emergence) [%] | Herbicidal action against AMARE [9] [%] | Herbicidal action against ABUTH [10] [%] | Herbicidal action against POLCO [11] [%] | Herbicidal action against AVEFA [12] [%] | Herbicidal action against VIOTR [13] [%] | Herbicidal action against ECHCG ([14]; pre-emergence) [%] | Herbicidal action against LOLRI [15] [%] | Herbicidal action against HORMU [16] [%] | Herbicidal action against SETVI ([17]; pre-emergence) [%] | Herbicidal action against VERPE [18] [%] | Herbicidal action against MATIN [19] [%] | Herbicidal action against PHBPU [20] [%] | also measured |
| --- | --- | --- | --- | --- | --- | --- | --- | --- | --- | --- | --- | --- | --- | --- | --- | --- | --- | --- | --- | --- | --- |
| Cc1ccc2c(c1)[C@H](Nc1ncc(C(C)O)c(C)n1)CCC2 (some centres unmarked) [Example 1.48] | 90 | 80 | 80 | 100 | 90 | 90 | 90 | 100 | 100 | 100 | 100 | 90 | 100 | 100 | 100 | 100 | 100 | 100 | 100 | 90 | Herbicidal efficacy against ALOMY [8, 22]: 70; Herbicidal efficacy against ALOMY [8, 23]: 50; Herbicidal efficacy against AMARE [9, 23]: 80; Herbicidal efficacy against ABUTH [10, 24]: 90; Herbicidal efficacy against POLCO [11, 24]: 100; Herbicidal efficacy against ECHCG [14, 22]: 80; Herbicidal efficacy against ECHCG [14, 23]: 90; Herbicidal efficacy against LOLRI [15, 24]: 90; Herbicidal efficacy against HORMU [16, 23]: 20; Herbicidal efficacy against SETVI [17, 22]: 100; Herbicidal efficacy against SETVI [17, 23]: 70; Herbicidal efficacy against MATIN [19, 23]: 70; Herbicidal efficacy against PHBPU [20, 24]: 70; Herbicidal efficacy against STEME [21, 23]: 80; Herbicidal action against STEME [21]: 100% |
| C=CC(C)(O)c1cnc(N[C@H]2c3cc(C)ccc3C[C@@H]2C)nc1 (stereo partly drawn) [Example 1.15, 2-(2-{[(1R,2S)-2,6-Dimethyl-2,3-dihydro-1H-inden-1-yl]amino}pyrimidin-5-yl)but-3-en-2-ol] | 90 | 90 | 80 | 100 | 80 | 90 | 100 | 100 | 100 | 100 | 100 | 100 | 100 | 100 | 100 | 100 | 100 | 100 | 100 | 100 | Herbicidal action against STEME [21]: 100% |

From patent US11477982B2, “2-amino-5-oxyalkyl-pyrimidine derivatives and their use for controlling undesired plant growth” (Bayer CropScience Aktiengesellschaft, priority 2017, dated 2022)
